Earlier results on one compound are cited in patent US9248110B2, “Compositions and methods of treating and preventing lung cancer and lymphangioleiomyomatosis” (priority 2010, dated 2016).

Read-outs that look alike come from different tables or passages of the source.

In the data set the test system is Lewis lung LLC1 cells. The settings on record: orally administered.

Consider `CN(C)C(=N)N=C(N)N` [metformin], for which the tumor growth result reads like this: (mice fed a high-energy diet) “reduce tumor growth”; (mice on a control diet) “no effect on tumor growth”.
